Measurements reported in PMC10352165, “Miniaturized method for the quantification of persistent organic pollutants and their metabolites in HepG2 cells: assessment of their biotransformation” (Analytical and Bioanalytical Chemistry, 2023).
Values after ≈ are worked out from the molar mass of the structure shown. Where two headings read alike, the source gives them in different places.

What was measured:
HepG2 cells [1] = experiment: Biotransformation experiment in HepG2 (concentration in cells and exposure medium); conditions: for Biotransformation ratio between metabolites and PHE, cells / Biotransformation ratio between metabolites and PHE, medium: HepG2, 15 mg·L^−1 PHE; for Biotransformation ratio between metabolites and BDE-47, cells / Biotransformation ratio between metabolites and BDE-47, medium: HepG2, 20 mg·L^−1 BDE-47, 48 h; for Concentration in medium, t = 0 h: contaminated medium at time 0, 20 mg·L^−1 BDE-47 nominal; for Concentration in medium, no cells: contaminated medium without cells, 20 mg·L^−1 BDE-47, 48 h
MTT cell viability assay = type: cell-based; conditions: human
Procedure: (§1) Cell viability was determined by MTT assay. First, 10,000 cells/well were cultured in 96-well plates for 24 h at 37 °C and 5% CO2. After that time, the culture medium was replaced with a culture medium containing different concentrations (0–70 mg·L^−1) of PHE and BDE-47 for 48 h of exposure under the same incubated conditions. After that, 20 μL MTT solution (5 mg·mL^−1 diluted in PBS) was added and incubated for the following 4 h. Viable cellular metabolic reduction of MTT produced formazan crystals, which were dissolved in 100 μL sterile DMSO and quantified with absorbance measurement at 595 nm in a Multiskan Sky High ([…] Thermo Fisher). The cell viability was estimated by using Eq. (1). 1 %Viability=Aexp-Ablank/Acontrol-Ablank∙100 where Acontrol, Aexp, and Ablank are the mean absorbance value (6 replicates) of the control group (cells without pollutant), experimental group, and blank group (only cell culture medium), respectively. Five independent assays were carried out with the same conditions. The results have been subsequently used for the design of the biotransformation experiment.
(§2) Cell viability of each concentration was estimated by using Eq. (1) according to the absorbance values obtained in the MTT assay. The dose–response values were fitted by Origin Pro 2021 with a polynomial equation (shown in Fig. 3) from which the LC value was estimated. LC50 (50% viability) and LC30 (70% viability) were estimated by the polynomial fitting of the mean cell viability data obtained from three independent experiments. Cell viability in HepG2 decreased by 30% at 22 mg·L^−1 PHE and 38 mg·L^−1 BDE-47 and up to 50% at 38 mg·L^−1 PHE and 46 mg·L^−1 BDE-47. […] The calculated LC30 values have been subsequently used for the design of the biotransformation experiments.

HepG2 cells [2] = experiment: MTT cell viability assay; type: cell-based
Procedure: as §1, §2

HepG2 cells [3] = experiment: Plastic and glass plate exposure test (loss and cell uptake of compound); type: in vitro ADME
Procedure: Exposure of HepG2 cells (3 replicates) was performed by initially seeding approximately 2·10^6 cells in glass P100 plates and being incubated for 24 h at 37 °C (5% CO2) with 10 mL of DMEM supplemented with 10% FBS. […] The nominal exposure concentration was estimated by the previous MTT viability study, in which, more than 70% of the cells were alive at the end of the test (lethal concentration 30, LC30) to ensure good metabolizing capacity. Part of the contaminated medium was stored to determine the concentration at time 0 of exposure (“t = 0 h”). In addition, to consider possible analyte loss, a plate of control cells without pollutant (“blank”) and a plate with contaminated medium without cells (“no cells”) were incubated under the same conditions. […] Since the determination of PHE is carried out by LC-FL and its metabolites by GC–MS, the cell pellet was divided in half for each analysis. For this purpose, the adherent cells were lifted in suspension by trypsinization, and the total volume of the homogenous cell suspension was divided in half. Then, the resulting cell pellet from each fraction was collected by centrifuging at 1500 rpm for 5 min and removing the medium. However, for the determination of BDE-47 and its metabolites, the complete pellet obtained is analyzed because a simultaneous extraction is performed for both analyses. The obtained pellet was dried under a gentle stream of nitrogen, weighed on a precision analytical balance (± 0.00001 g), and stored at − 4 °C until analysis. Three independent assays were carried out with the same conditions, each with 3 replicates (plates) of the same concentration.
A major problem in in vitro cell assays is the loss of compound during the exposure process to estimate the effective concentration available to the cell and to correctly assess the toxicity and metabolization kinetics of POPs, as most of them are hydrophobic and semi-volatile. Firstly, when concentration was determined in the exposure and no cells medium samples at the end of the test (48 h) using plastic Petri dishes, a loss of 89% and 84% compared to the t = 0 h sample was found in the cells and no cells sample respectively (Table 1). This loss, similar to that found in previous studies, is mainly explained by absorption into polystyrene, the main component of in vitro culture plates or evaporation processes because these compounds have a Henry law constant (KH) between 1 and 10 Pa·m^3·mol^−1 [11] (7.90 Pa·m^3·mol^−1 for PHE at 35 °C [13] and 3.78 Pa·m^3·mol^−1 for BDE-47 at 40 °C [40]). The remaining concentration in the medium that had not been lost by evaporation or absorbed into the cells was retained in the protein serum. […] A fraction dissolved in the medium accessible to the cells of 3.5% for anthracene (log Kow 4.5) was obtained introducing the conditions of this work into the chemical partitioning model developed by Fischer et al.. […] Therefore, it should be considered to avoid the use of plastic in tests that requires P100 plates with a very high surface area/volume ratio of the medium when studying neutral chemicals with a log Kow > 3, as is the case of PHE (log Kow 4.46 [39]) and BDE-47 (log Kow 6.81 [26]).
Using glass plates, a loss of 47% and 26% for cells and no cells samples, respectively, was found at the end of the assay (48 h) (Table 1), and the concentration absorbed by the cells increased from 4 ± 1 to 18 ± 3%. For BDE-47, a loss of only 14% because of volatilization and an absorbed concentration of 24 ± 2% resulted using a glass plate, as BDE-47 is less volatile and more hydrophobic than PHE, favoring cell uptake. Birch et al. calculated a cell-free fraction of 13% for PHE in HepG2 cells with 10% of FBS in the medium considering the evaporation losses using glass vials. […]

[4] = cited from earlier work
[5] = cited from earlier work; remark: listed apart in the source
HepG2 = conditions: cited from earlier work; for CC50: read-out: LC50 (the source's name)
HepG2 cells [6] = conditions: 15 mg·L^−1
[7] = parameters: method as in PMID 18318592; conditions: cited from earlier work
HepG2 cells [8] = test system: HepG2 cells; parameters: method as in PMID 31426631; conditions: 10% FBS in medium, evaporation losses considered, glass vials; cited from earlier work
[9] = HepG2 exposed to 15 mg·L^−1 PHE, 48 h, metabolites
[10] = HepG2 exposed to 20 mg·L^−1 BDE-47, 48 h, metabolites
[11] = HepG2 exposed to 20 mg·L^−1 BDE-47, 48 h, parent compound

Oc1cccc2c1ccc1ccccc12 [1-OH-PHE]
Biotransformation ratio between metabolites and PHE, cells (HepG2 cells [1]; 48 h): 0.01 | Biotransformation ratio between metabolites and PHE, medium (HepG2 cells [1]; 48 h): 0.22 | Concentration in cells, samples (n = 3) (HepG2 cells [1]; [9]): 72 ± 27 ng/g | Concentration in medium, samples (HepG2 cells [1]; [9]): 7.7 ± 0.9 ng/mL

Oc1ccc2c(ccc3ccccc32)c1 [2-OH-PHE]
Biotransformation ratio between metabolites and PHE, cells (HepG2 cells [1]; 48 h): 0.06 | Biotransformation ratio between metabolites and PHE, medium (HepG2 cells [1]; 48 h): 0.15 | Concentration in cells, samples (n = 3) (HepG2 cells [1]; [9]): 284 ± 92 ng/g | Concentration in medium, samples (HepG2 cells [1]; [9]): 5.2 ± 0.9 ng/mL

Oc1cc(Br)ccc1Oc1ccc(Br)cc1Br [2’-OH-BDE-28]
Concentration in cells, samples (HepG2 cells [1]; [10]): 0.11 ± 0.09 ng/g | Concentration in medium, samples (HepG2 cells [1]; [10]): 3.2 ± 0.2 ng/mL

COc1c(Br)ccc(Oc2ccc(Br)cc2Br)c1Br [3-MeO-BDE-47]
metabolite detection after exposure (in words) (HepG2 cells [1]; HepG2 exposed to 20 mg·L^−1 BDE-47, 48 h): No quantifiable amounts

Oc1c(Br)ccc(Oc2ccc(Br)cc2Br)c1Br [3-OH-BDE-47]
Biotransformation ratio between metabolites and BDE-47, cells (HepG2 cells [1]): 0.01 | Biotransformation ratio between metabolites and BDE-47, medium (HepG2 cells [1]): 0.04 | Concentration in cells, samples (HepG2 cells [1]; [10]): 0.21 ± 0.10 ng/g | Concentration in medium, samples (HepG2 cells [1]; [10]): 4.3 ± 0.2 ng/mL

Oc1ccc2ccc3ccccc3c2c1 [3-OH-PHE]
Biotransformation ratio between metabolites and PHE, cells (HepG2 cells [1]; 48 h): 0.04 | Biotransformation ratio between metabolites and PHE, medium (HepG2 cells [1]; 48 h): 0.13 | Concentration in cells, samples (n = 3) (HepG2 cells [1]; [9]): 195 ± 33 ng/g | Concentration in medium, samples (HepG2 cells [1]; [9]): 4.0 ± 0.7 ng/mL

Oc1cccc2ccc3ccccc3c12 [4-OH-PHE]
Biotransformation ratio between metabolites and PHE, cells (HepG2 cells [1]; 48 h): 0.05 | Biotransformation ratio between metabolites and PHE, medium (HepG2 cells [1]; 48 h): 0.16 | Concentration in cells, samples (n = 3) (HepG2 cells [1]; [9]): 260 ± 85 ng/g | Concentration in medium, samples (HepG2 cells [1]; [9]): 5 ± 1 ng/mL

COc1cc(Oc2ccc(Br)cc2Br)c(Br)cc1Br [5-MeO-BDE-47]
Biotransformation ratio between metabolites and BDE-47, cells (HepG2 cells [1]): 0.03 | Biotransformation ratio between metabolites and BDE-47, medium (HepG2 cells [1]): 0.01 | Concentration in cells, samples (HepG2 cells [1]; [10]): 0.12 ± 0.02 ng/g | Concentration in medium, samples (HepG2 cells [1]; [10]): 1.2 ± 0.9 ng/mL

Oc1cc(Oc2ccc(Br)cc2Br)c(Br)cc1Br [5-OH-BDE-47]
Biotransformation ratio between metabolites and BDE-47, cells (HepG2 cells [1]): 0.01 | Biotransformation ratio between metabolites and BDE-47, medium (HepG2 cells [1]): 0.06 | Concentration in cells, samples (HepG2 cells [1]; [10]): 0.27 ± 0.08 ng/g | Concentration in medium, samples (HepG2 cells [1]; [10]): 6.2 ± 0.5 ng/mL

Brc1ccc(Oc2ccc(Br)cc2Br)cc1 [BDE-28]
Concentration in cells, samples (HepG2 cells [1]; [10]): 18 ± 5 ng/g | Concentration in medium, samples (HepG2 cells [1]; [10]): 577 ± 92 ng/mL | Concentration in medium, t = 0 h (HepG2 cells [1]; metabolites): 662 ± 18 ng/mL | Concentration in medium, no cells (HepG2 cells [1]; metabolites): 651 ± 36 ng/mL

Brc1ccc(Oc2ccc(Br)cc2Br)c(Br)c1 [BDE-47, 2,2′,4,4′-tetrabromodiphenyl ether]
CC50 at 48 h (MTT cell viability assay; HepG2, 48 h of exposure, MTT, polynomial fitting, read-out: LC50 (50% viability)): 46 µg/mL (≈ 94.7 µM) | LC30 (70% viability; cell viability decreased by 30%) (HepG2 cells [2]; HepG2, 48 h of exposure, MTT, polynomial fitting): 38 µg/mL (≈ 78.2 µM) | loss because of volatilization (HepG2 cells [3]; glass plate): 14% | concentration absorbed by the cells (HepG2 cells [3]; glass plates, 48 h): 24 ± 2% | Henry law constant (KH) ([4]; at 40 °C): 3.78 Pa·m^3·mol^−1 | log Kow [5]: 6.81 | LC50 (HepG2; HepG2, BDE-47): 48.6 µg/mL (≈ 100 µM) | CC50 (HepG2; HepG2, BDE-47): 100 µM | Concentration in cells, samples (HepG2 cells [1]; [11]): 737000 ± 120000 ng/g | Concentration in medium, samples (HepG2 cells [1]; [11]): 13000 ± 2000 ng/mL | Concentration in medium, t = 0 h (HepG2 cells [1]): 16000 ± 1000 ng/mL | Concentration in medium, no cells (HepG2 cells [1]): 14000 ± 3000 ng/mL

c1ccc2c(c1)ccc1ccccc12 [PHE, phenanthrene]
CC50 at 48 h (MTT cell viability assay): 38 µg/mL (≈ 213 µM) | LC30 (70% viability; cell viability decreased by 30%) (HepG2 cells [2]; human, 48 h): 22 µg/mL (≈ 123 µM) | Conc. PHE Glass plate exposure (HepG2 cells [3]; 0 h): 4370 ng/mL | Conc. PHE Plastic plate exposure (HepG2 cells [3]; 0 h): 5570 ng/mL | Conc. PHE Glass plate exposure (HepG2 cells [3]; 24 h): 3690 ng/mL | Conc. PHE Glass plate exposure (HepG2 cells [3]; 48 h): 3160 ng/mL | Conc. PHE Plastic plate exposure (HepG2 cells [3]; 48 h): 880 ng/mL | loss at the end of the assay (HepG2 cells [3]; 48 h): 26% | loss compared to the t = 0 h sample (HepG2 cells [3]; 48 h): 84% | concentration absorbed by the cells (HepG2 cells [3]; human, 48 h): 18 ± 3% | loss at the end of the assay (HepG2 cells [3]; human, 48 h): 47% | loss compared to the t = 0 h sample (HepG2 cells [3]; human, 48 h): 89% | taken up by the cells (HepG2 cells [3]; human, 48 h): 4 ± 1% | Concentration in medium, t = 0 h (HepG2 cells [6]; 0 h): 12000 ± 1000 ng/mL | Concentration in medium, no cells (HepG2 cells [6]; 48 h): 8000 ± 2000 ng/mL | Concentration in cells, samples (n = 3) (HepG2 cells [6]; human, 48 h): 521 ± 144 µg/g | Concentration in medium, samples (HepG2 cells [6]; human, 48 h): 5700 ± 700 ng/mL | Henry law constant (KH) ([4]; at 35 °C): 7.90 Pa·m^3·mol^−1 | log Kow [5]: 4.46 | LC50 (HepG2; HepG2 at 48 h of PHE exposure): 20.3 µg/mL (≈ 114 µM) | CC50 (HepG2; HepG2 at 48 h of PHE exposure): 114 µM | absorption when glass is used ([7]; glass): 2% | initial concentration absorbed on polystyrene ([7]; polystyrene): 94% | cell-free fraction (HepG2 cells [8]): 13%

c1ccc2cc3ccccc3cc2c1 [anthracene, reference compound]
log Kow ([5]; value used with the partitioning model): 4.5
